Experimental findings from ChEMBL document CHEMBL1142118, “Halogenated monoterpene aldehydes from the South African marine alga Plocamium corallorhiza” (J Nat Prod, 2007) are described below.

The assay in a line: Cytotoxicity against WHCO1 cells after 48 hrs by MTT assay. Format: cell-based. As to conditions: Homo sapiens, WHCO1, 48 h. For orientation: Tetrazolium dyes change colour on reduction, which living cells bring about.

The IC50 is the point on the concentration scale where inhibition reaches its midpoint. Low readings indicate inhibition by little substance, high ones a need for much substance. Consider `C=C(C)C(Br)CC(Br)/C(C)=C/C=O` (configuration not stated), for which the IC50 was found to be 7.5 µM.

As for `CC(/C=C/C(Cl)C(C)(Cl)CBr)=C\C=O` (configuration not stated), the IC50 stood at 64.8 µM. This IC50 is about 8.6-fold higher than that of the compound before.
